Experimental data reported in PubChem BioAssay (NCI).
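Each compound was tested at five concentrations against cells in 96-well plates for 48 hours. At the GI50, growth is halved. TGI denotes the concentration required for complete inhibition of growth.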

How the values were obtained:
Experiment in all cases: growth of human tumour cells (NCI), 48 h; in the data active = GI50 below about 0.43 µM; inactive = the rest
[1] = system: SK-MEL-28 melanoma
[2] = system: SK-OV-3 ovarian
[3] = system: NCI/ADR-RES ovarian
[4] = system: K-562 leukemia
[5] = system: COLO 205 colon
[6] = system: MCF7 breast
[7] = system: TK-10 renal
[8] = system: M14 melanoma
[9] = system: SW-620 colon
[10] = system: IGROV1 ovarian
[11] = system: OVCAR-5 ovarian
[12] = system: T-47D breast
[13] = system: NCI-H226 lung
[14] = system: CAKI-1 renal
[15] = system: A549 NSCLC
[16] = system: RXF 393 renal
[17] = system: HCT-15 colon
[18] = system: SK-MEL-2 melanoma
[19] = system: A498 renal
[20] = system: NCI-H23 lung
[21] = system: SF-295 CNS
[22] = system: SF-539 CNS
[23] = system: OVCAR-3 ovarian
[24] = system: UACC-257 melanoma
[25] = system: LOX IMVI melanoma
[26] = system: MDA-MB-435
[27] = system: DU-145 prostate
[28] = system: PC-3 prostate
[29] = system: MALME-3M melanoma
[30] = system: NCI-H522 lung
[31] = system: MDA-MB-231 breast
[32] = system: KM12 colon
[33] = system: SN12C renal
[34] = system: BT-549 breast
[35] = system: EKVX NSCLC
[36] = system: HT29 colon
[37] = system: OVCAR-4 ovarian
[38] = system: HS 578T breast
[39] = system: MOLT-4 leukemia
[40] = system: UACC-62 melanoma
[41] = system: OVCAR-8 ovarian
[42] = system: HOP-62 NSCLC
[43] = system: HCC-2998 colon
[44] = system: SK-MEL-5 melanoma
[45] = system: 786-0 renal
[46] = system: SR leukemia
[47] = system: HOP-92 NSCLC
[48] = system: SNB-19 CNS
[49] = system: U251 CNS
[50] = system: HL-60(TB) leukemia
[51] = system: SF-268 CNS
[52] = system: NCI-H460 lung
[53] = system: UO-31 renal
[54] = system: ACHN renal
[55] = system: SNB-75 CNS
[56] = system: HCT-116 colon
[57] = system: RPMI-8226 leukemia
[58] = system: CCRF-CEM leukemia

CCOC(=O)CCC(NC(=O)c1ccc(CNc2nc3cc(N)cc(N)c3nc2-c2ccccc2)cc1)C(=O)OCC (stereo not drawn)
42 µM: TGI [37]
9.43 µM: TGI [39]
66.6 µM: TGI [1]
49.1 µM: TGI [12]
35.3 µM: TGI [29]
> 45 µM: TGI [50]
23.7 µM: TGI [46]
39.1 µM: TGI [24]
> 90.2 µM: TGI [33]
> 100 µM: TGI [2] | TGI [3] | TGI [4] | TGI [5] | TGI [6] | TGI [7] | TGI [9] | TGI [10] | TGI [11] | TGI [13] | TGI [14] | TGI [15] | TGI [16] | TGI [17] | TGI [19] | TGI [20] | TGI [21] | TGI [22] | TGI [23] | TGI [25] | TGI [27] | TGI [28] | TGI [30] | TGI [32] | TGI [34] | TGI [35] | TGI [36] | TGI [38] | TGI [40] | TGI [41] | TGI [42] | TGI [43] | TGI [44] | TGI [45] | TGI [47] | TGI [48] | TGI [49] | TGI [51] | TGI [52] | TGI [53] | TGI [54] | TGI [55] | TGI [56]
> 86.4 µM: TGI [26]
> 68.1 µM: TGI [31]
> 87.9 µM: TGI [18]
> 61.6 µM: TGI [8]

COc1cc(/C=C/C(=O)c2cc(F)c(Cl)cc2Cl)cc(OC)c1OC
85.8 µM: TGI [28]
40 µM: TGI [23]
91.2 µM: TGI [25]
> 100 µM: TGI [1] | TGI [2] | TGI [6] | TGI [7] | TGI [8] | TGI [9] | TGI [11] | TGI [12] | TGI [13] | TGI [14] | TGI [15] | TGI [19] | TGI [20] | TGI [21] | TGI [22] | TGI [24] | TGI [26] | TGI [27] | TGI [31] | TGI [33] | TGI [34] | TGI [35] | TGI [37] | TGI [38] | TGI [40] | TGI [42] | TGI [43] | TGI [44] | TGI [47] | TGI [48] | TGI [49] | TGI [51] | TGI [52] | TGI [54] | TGI [55]
52.9 µM: TGI [57] | TGI [39]
45 µM: TGI [36]
inactive: GI50 [1] 32 µM | GI50 [2] > 100 µM | GI50 [3] 23.9 µM | GI50 [4] 11.4 µM | GI50 [5] 14.7 µM | GI50 [6] 32.3 µM | GI50 [57] 15.2 µM | GI50 [7] 31 µM | GI50 [8] 43.9 µM | GI50 [9] 31.9 µM | GI50 [11] 25.2 µM | GI50 [12] 41.2 µM | GI50 [13] 79.9 µM | GI50 [14] 27.6 µM | GI50 [15] 39.2 µM | GI50 [16] 17.2 µM | GI50 [17] 19.8 µM | GI50 [18] 15.8 µM | GI50 [19] > 100 µM | GI50 [58] 23.8 µM | GI50 [20] 34.2 µM | GI50 [21] 44.4 µM | GI50 [22] 28.1 µM | GI50 [23] 14.5 µM | GI50 [24] 42 µM | GI50 [25] 25.1 µM | GI50 [26] 28.1 µM | GI50 [27] 68.6 µM | GI50 [28] 12.5 µM | GI50 [29] 10.8 µM | GI50 [31] 15.7 µM | GI50 [32] 10.5 µM | GI50 [33] 27.7 µM | GI50 [34] 53.2 µM | GI50 [35] > 100 µM | GI50 [36] 15.2 µM | GI50 [37] 48.6 µM | GI50 [38] 28.7 µM | GI50 [39] 12.9 µM | GI50 [40] 24.8 µM | GI50 [41] 15.8 µM | GI50 [42] 82.2 µM | GI50 [43] 73 µM | GI50 [44] 49.6 µM | GI50 [45] 22.9 µM | GI50 [46] 5.23 µM | GI50 [47] 25.9 µM | GI50 [48] 39.6 µM | GI50 [49] 29.3 µM | GI50 [50] 16.6 µM | GI50 [51] 68.9 µM | GI50 [52] 48.3 µM | GI50 [53] 16.3 µM | GI50 [54] 60.6 µM | GI50 [55] 56.3 µM | GI50 [56] 12.6 µM
54.4 µM: TGI [17]
25.1 µM: TGI [56]
76.4 µM: TGI [58]
39.1 µM: TGI [46]
37.7 µM: TGI [29]
97.2 µM: TGI [45]
58.7 µM: TGI [18]
33.6 µM: TGI [41]
45.5 µM: TGI [5]
27.7 µM: TGI [4]
71.9 µM: TGI [50]
26.4 µM: TGI [32]
32.8 µM: TGI [53]
83.8 µM: TGI [3]
62.2 µM: TGI [16]

COc1ccc(CNc2nc(NCc3ccc(OC)cc3)nc(Nc3ccccc3)n2)cc1
78.5 µM: TGI [20]
4.1 µM: TGI [36]
> 100 µM: TGI [1] | TGI [2] | TGI [3] | TGI [4] | TGI [5] | TGI [6] | TGI [7] | TGI [8] | TGI [9] | TGI [10] | TGI [11] | TGI [12] | TGI [13] | TGI [15] | TGI [16] | TGI [18] | TGI [19] | TGI [22] | TGI [24] | TGI [27] | TGI [28] | TGI [29] | TGI [30] | TGI [31] | TGI [33] | TGI [34] | TGI [35] | TGI [37] | TGI [38] | TGI [39] | TGI [40] | TGI [41] | TGI [42] | TGI [44] | TGI [45] | TGI [47] | TGI [48] | TGI [49] | TGI [50] | TGI [51] | TGI [52] | TGI [53] | TGI [54] | TGI [55] | TGI [56]
40.3 µM: TGI [57]
6.94 µM: TGI [23]
10.4 µM: TGI [14]
8.83 µM: TGI [21]
35.3 µM: TGI [32]
3.81 µM: TGI [46]
13.5 µM: TGI [17]
5.7 µM: TGI [26]
